In US20030166004A1, “Endothelial-cell binding peptides for diagnosis and therapy” (priority 2001, published 2003):

Columns and labels:
HUVEC cells = assay: HUVEC proliferation assay (FGF-stimulated); assay type: cell-based, human
Protocol: (§1) We performed proliferation assays to determine the effect of the synthetic EC binding peptides on the proliferation of endothelial cells. In these assays the proliferation of bovine capillary endothelial (BCE), human microvascular endothelial (HMVEC) and human vascular endothelial cells (HUVEC) was stimulated by FGF and VEGF165 as indicated on FIG. 4. The effect of increasing concentration of synthetic EC binding peptides was measured on the proliferation of the stimulated cells. After the 72 h incubation the media was removed, the plates were washed two times with PBS and frozen at −80° C. Proliferation of the BCE cells was accessed using the CyQUANT® fluorescent cell proliferation assay kit according to the manufacturer's recommendations.
(§2) In the MSA-peptide fusions the peptide sequence was inserted into a cysteine constrained loop between amino acids 53 and 62. […]
(§3) The transfected COS7-L cells were cultured in defined serum free media (VP-SFM). […] The concentration of the albumin proteins was determined by Western blot analysis of each preparation using a rabbit anti-MSA antibody and using purified MSA of known concentration to generate a standard curve. Following development of the blot and exposure to film the autoradiographs were analyzed using the Gel Doc 1000 image analysis system and Molecular Analyst software (BioRad).

[1] = tested on: bovine capillary endothelial cells (BCE); assay: BCE proliferation assay (FGF-stimulated, CyQUANT); assay type: cell-based; settings: 72 h
Protocol: as §1, §2
as §3, with “(BioRad). […]” for “(BioRad).”

## MSA-myc: MSA with Myc epitope peptide EQKLISEEDL inserted between Glu 57 and Ser 58 (negative control)
HUVEC cells
  inhibition of HUVEC proliferation (in words, active range): did not significantly affect
[1]
  inhibition of BCE proliferation (in words, active range): did not significantly affect

## MSA: full-length mouse serum albumin (negative control)
HUVEC cells
  inhibition of HUVEC proliferation (in words, active range): did not significantly affect
[1]
  inhibition of BCE proliferation (in words, active range): did not significantly affect
